The assay has as its system PDE4D. As to the kind of experiment: Occupancy of Compound B by PET with Compound A (Lassen plot). Format: in vivo, cynomolgus non-human primates (Macaca fascicularis). Conditions: Compound B 3 mg/kg infusion. The text has this:
Two male non-naïve cynomolgus non-human primates (Macaca fascicularis) (“Subject 1” and “Subject 2”) were utilized in this study (7.0 and 5.5 kg). Subjects had previously undergone surgery for placement of arterial access ports for blood collection from the iliac artery. Each subject underwent a brain MR in a Philips 1.5T Intera scanner using a 3D T1 FFE sequence for subsequent registration with PET and application of a cynomolgus brain region of interest atlas for determination of regional time-activity curves. PET scans were conducted in each subject under baseline condition (i.e., Compound A, only) and 15 minutes after a 10 minute infusion of Compound B at 3 mg/kg (i.e. blocking condition). Compound B is a known PDE4D ligand, alternatively referred to as BPN14770.
Volume of distribution (VT) (mL/cm^3) of Compound A was estimated with the 2-tissue compartment (2TC) model and Logan graphical analysis (LGA, t*=30), for baseline and blocking scans, using 90 min of data. VT at baseline and blocking in ROIs were used to compute occupancy of Compound B via the occupancy (Lassen) plot. Time stability of VT estimated from 2TC and LGA models were assessed for both animals from 90 min or 120 minutes of data for baseline and blocking scans.

With `NC(=O)Cc1ccc(Nc2cc(C(F)(F)F)nc(-c3cccc(Cl)c3)n2)cc1` [Compound B], the “Occupancy (%)” value (Subject 1, 2TC) was found to be 84%; the “Occupancy (%)” value (Subject 1, LGA) is listed as 88%; the “Occupancy (%)” value (Subject 2, 2TC) came to 82%; the “Occupancy (%)” value (Subject 2, LGA) was found to be 73%.

The values are drawn from patent US11104660B2, “PDE4D inhibitors” (TETRA DISCOVERY PARTNERS, INC., priority 2019, dated 2021).
